Test results as given in PMC6199744, “Development of Chemical Proteomics for the Folateome and Analysis of the Kinetoplastid Folateome” (ACS Infectious Diseases, 2018).

System: L. major lysate proteins
Test: Multitargeted bead mixture chemoproteomics, single concentration competition, proteome-wide
Format: binding
Details: for fold change: vehicle control = 1

NCCOCCOCC(=O)Nc1nc2ncc(CNc3ccc(C(=O)NC(CCC(=O)O)C(=O)O)cc3)nc2c(=O)[nH]1 (stereo not shown) [compound 6]
fold change vs vehicle control (protein LMJF.15.0690 HY[…], CONSERVED): 1.26
fold change (protein LMJF.15.1010 GLUTAMATE DEHYDROGENASE): 1.11
fold change (protein LMJF.15.1190 HY[…], CONSERVED (cyclic nucleotide-binding domain containing protein, putative)): 1.07
fold change vs vehicle control (protein LMJF.16.0520 HYPOTHETICAL PROTEIN, CONSERVED): 0.99
fold change vs vehicle control (protein LMJF.16.0540 ASPARTATE […], PUTATIVE): 1.06
fold change relative to vehicle control (protein LMJF.16.0760, TRANSALDOLASE, PUTATIVE): 1.36
fold change vs vehicle control (protein LMJF.16.0940 DYNEIN LIGHT CHAIN, PUTATIVE): 0.92
fold change relative to vehicle control (protein LMJF.16.1180, COATOMER DELTA SUBUNIT-LIKE PROTEIN): 1.24
fold change relative to vehicle control (protein LMJF.16.1320, […], PUTATIVE): 1.33
fold change relative to vehicle control (protein LMJF.16.1420, HY[…], CONSERVED): 1.05
fold change relative to vehicle control (protein LMJF.17.0081, […] 1-ALPHA): 1.09
fold change relative to vehicle control (protein LMJF.18.0270, GLYCOGEN SYNTHASE KINASE, PUTATIVE): 1.13
fold change (protein LMJF.18.0580 PEROXISOMAL ENOYL-COA HYDRATASE, PUTATIVE): 0.98
fold change relative to vehicle control (protein LMJF.18.0680, CITRATE SYNTHASE, PUTATIVE): 1.1
fold change vs vehicle control (protein LMJF.18.1010 DYNEIN LIGHT CHAIN 2B, CYTOPLASMIC, PUTATIVE): 0.82
fold change vs vehicle control (protein LMJF.18.1210 PROLYL-TRNA SYNTHETASE, PUTATIVE,BIFUNCTIONAL AMINOACYL-TRNA SYNTHETASE, PUTATIVE): 1
fold change vs vehicle control (protein LMJF.18.1370 HEAT SHOCK PROTEIN, PUTATIVE): 1.1
fold change (protein LMJF.19.0200 ADP,ATP CARRIER PROTEIN 1, MITOCHONDRIAL PRECURSOR, PUTATIVE): 1.1
fold change vs vehicle control (protein LMJF.19.1120 PROTEASOME REGULATORY NON-ATP-ASE SUBUNIT, PUTATIVE): 0.96
fold change vs vehicle control (protein LMJF.19.1160 HY[…], CONSERVED): 1.08
fold change vs vehicle control (protein LMJF.19.1560 INOSINE-5'-MONOPHOSPHATE DEHYDROGENASE): 0.98
fold change relative to vehicle control (protein LMJF.19.1620, POTASSIUM VOLTAGE-GATED CHANNEL, PUTATIVE): 1.05
fold change vs vehicle control (protein LMJF.20.1280 SMALL MYRISTOYLATED PROTEIN 4, PUTATIVE): 0.89
fold change (protein LMJF.21.0810 METHIONYL-TRNA SYNTHETASE, PUTATIVE): 1.03
fold change (protein LMJF.21.1450 ARGININE N-METHYLTRANSFERASE, TYPE II, PUTATIVE): 0.96
fold change vs vehicle control (protein LMJF.21.1830 […] 5 SUBUNIT, PUTATIVE,20S […] ALPHA 5, (PUTATIVE)): 1.01
fold change (protein LMJF.22.0230 AMINO ACID PERMEASE, PUTATIVE): 1.05
fold change vs vehicle control (protein LMJF.22.0570 […] SUBUNIT 1, PUTATIVE): 1.03
fold change vs vehicle control (protein LMJF.22.0730 HYPOTHETICAL PROTEIN, CONSERVED): 0.94
fold change (protein LMJF.22.0770 NADH-CYTOCHROME B5 REDUCTASE, PUTATIVE): 0.79
fold change relative to vehicle control (protein LMJF.23.0020, HY[…], CONSERVED): 1.46
fold change relative to vehicle control (protein LMJF.23.0040, PEROXIDOXIN): 0.97
fold change relative to vehicle control (protein LMJF.23.0080, HY[…], CONSERVED): 1.04
fold change (protein LMJF.23.0210 ATP-BINDING CASSETTE PROTEIN SUBFAMILY C, MEMBER 1, PUTATIVE): 0.92
fold change (protein LMJF.23.0370 CYTOCHROME C OXIDASE SUBUNIT 10, PUTATIVE): 0.83
fold change relative to vehicle control (protein LMJF.23.0540, ACETYL-COA SYNTHETASE, PUTATIVE): 1.23
fold change vs vehicle control (protein LMJF.23.0560 KINESIN, PUTATIVE): 1.1
fold change vs vehicle control (protein LMJF.23.1410 HY[…], CONSERVED): 1.01
fold change relative to vehicle control (protein LMJF.24.0070, HYPOTHETICAL PROTEIN, CONSERVED): 0.93
fold change (protein LMJF.24.0140 ANKYRIN/TPR REPEAT PROTEIN): 1.06
fold change (protein LMJF.24.0400 HY[…], CONSERVED (TPR repeat, putative)): 1.02
fold change relative to vehicle control (protein LMJF.24.1510, IGE-DEPENDENT HISTAMINE-RELEASING FACTOR, PUTATIVE): 1.54
fold change relative to vehicle control (protein LMJF.24.1630, SUCCINATE DEHYDROGENASE FLAVOPROTEIN, PUTATIVE): 1.08
fold change relative to vehicle control (protein LMJF.24.2060, TRANSKETOLASE): 1.04
fold change relative to vehicle control (protein LMJF.25.0010, BETA […] TRANSFERASE): 1.13
fold change relative to vehicle control (protein LMJF.25.0910, CYCLOPHILIN A): 2.21
fold change vs vehicle control (protein LMJF.25.1130 CYTOCHROME C OXIDASE VII, PUTATIVE): 0.99
fold change relative to vehicle control (protein LMJF.25.1180, ATPASE BETA SUBUNIT, PUTATIVE): 1.13
fold change vs vehicle control (protein LMJF.25.1610 HY[…], CONSERVED): 1.01
fold change vs vehicle control (protein LMJF.25.1620 HYPOTHETICAL PROTEIN, CONSERVED): 1.1
fold change (protein LMJF.25.2340 SERINE/THREONINE-PROTEIN KINASE, PUTATIVE,PROTEIN KINASE, PUTATIVE): 0.74
fold change relative to vehicle control (protein LMJF.26.0630, HYPOTHETICAL PROTEIN, CONSERVED): 0.77
fold change vs vehicle control (protein LMJF.26.1240 HEAT SHOCK PROTEIN 70-RELATED PROTEIN): 1.06
fold change (protein LMJF.26.1710 CYTOCHROME C OXIDASE SUBUNIT V, PUTATIVE): 0.98
fold change vs vehicle control (protein LMJF.26.2480 CDP-DIACYLGLYCEROL--INOSITOL 3-[…], PUTATIVE): 1.06
fold change vs vehicle control (protein LMJF.26.2560 HYPOTHETICAL PROTEIN, CONSERVED): 0.93
fold change vs vehicle control (protein LMJF.27.0190 PROTEASOME ALPHA 7 SUBUNIT, PUTATIVE): 0.98
fold change (protein LMJF.27.0650 HY[…], CONSERVED): 1.15
fold change (protein LMJF.27.0700 HY[…], CONSERVED): 1.08
fold change vs vehicle control (protein LMJF.27.0760 GTP-binding protein homologue): 1.08
fold change vs vehicle control (protein LMJF.27.1060 CYSTEINE DESULFURASE, PUTATIVE): 1.09
fold change vs vehicle control (protein LMJF.27.1110 MITOCHONDRIAL RNA BINDING PROTEIN 1,GBP21, MRP1): 1
fold change (protein LMJF.27.1250 HYPOTHETICAL PROTEIN, CONSERVED (Serine-threonine kinase receptor-associated protein, putative)): 0.85
fold change relative to vehicle control (protein LMJF.27.1390, 60S ACIDIC RIBOSOMAL SUBUNIT PROTEIN, PUTATIVE): 1.07
fold change (protein LMJF.27.1460 PROTEASOME REGULATORY NON-ATP-ASE SUBUNIT 3, PUTATIVE): 1.1
fold change vs vehicle control (protein LMJF.28.0110 […] 3 SUBUNIT, PUTATIVE): 1.01
fold change vs vehicle control (protein LMJF.28.0490 PROPIONYL-COA CARBOXYLASE BETA CHAIN, PUTATIVE): 1.2
